Results: patent US20130102829A1, “METHOD FOR TREATING OSTEOSARCOMA BY BORON NEUTRON CAPTURE THERAPY USING BORIC ACID AS A BORON DRUG” (National Tsing Hua University, priority 2011, published 2013)
Where two headings read alike, the source gives them in different places.

What was measured:
brain tumors = conditions: 1950s; cited from earlier work
[1] = rat, in vivo
Procedure: Before measuring boron concentration of a sample, it needs to undergo microwave digestion first. A sample was initially placed into a Teflon high-pressure digestion vessel, then added with 3 mL of concentrated nitric acid (14N, 65%) and 0.5 mL of hydrogen peroxide (30-35%), and the vessel was sealed before placing the vessel into a microwave digestion system (MLS 1200 Milestone, Italia) for sample decomposition. […] The sample subsequently turned into a clear solution after complete digestion. After diluting the sample with deionized water, an Inductively Coupled Plasma Atomic Emission Spectrometer (ICP-AES, OPTIMA 2000 DV, PerkinElmer Instruments) was used to measure the boron concentration of the sample. For the conditions of the analysis, the temperature of argon plasma was set at 6000-7000 K; the analytical wavelength was set at 249.773 nm, and the liquid uptake rate was set at approximately 2 mL/min; the operating voltage after the formation of plasma was set at 40 V.
(§1) Male SD rats were the animals used in this osteosarcoma-bearing animal-model. Prior to the experiments, the rats were bred in cage for at least one week at temperature of 22° C. and humidity of 30-70%. An artificial lighting condition (12 h on/12 h off) was maintained in the room. The animal feeds and water were unlimited. The tumor cells used in the experiments were UMR-106 cell strain (Rat osteogenic sarcoma cell line, BCRC No: 60270). Firstly, obtained the UMR-106 tumor cells in exponential growth phase from a culture flask, then centrifuged the UMR-106 cells obtained by subculture method, followed by re-suspending the cells in a media without serum or antibiotics, and dividing the suspension into separate centrifuge microtubes. Placed the Matrigel Matrix (BD Bioscience), a syringe, and the centrifuge microtubes with the cell suspension on ice to be cooled for later use. Before implanting the tumor cells, the UMR-106 cell suspension was mixed with an equal amount of Matrigel first.
A SD rat was firstly anesthetized by using 2.5% Isoflurane (Halocarbon Laboratories, River Edge, N.J.), followed by shaving and disinfecting a surgical area on the rat for implanting the tumor cells. […] After the implantation, the rats were released back into the cage, and their activities and body conditions were monitored continuously. […]
Using the boric acid aqueous solution as a boron drug to do the animal experiments, drugs were administered to the osteosarcoma-bearing rats (six-week old, approximately 200-250 g in body weight) via tail vein injection, and the dose of the boric acid drugs was: 25 mg ^10B/kg BW. The rats' body weights needed to be measured and recorded before the experiments for preparing the boric acid aqueous solution. […]

UMR-106 osteosarcoma = tested on: UMR-106 osteosarcoma
Procedure: as §1
A SD rat was firstly anesthetized by using 2.5% Isoflurane (Halocarbon Laboratories, River Edge, N.J.), followed by shaving and disinfecting a surgical area on the rat for implanting the tumor cells. A 250 μL micro-syringe was fitted with a 25 gauge needle before extracting 200 μL of a mixed solution containing the cells and Matrigel (10×10^6 cells/200 μL). Then the needle was used to penetrate a SD rat's distal femur, which is the femoral condyle; the syringe was rotated in order to penetrate the femur and the spongy bone, and ensured it had protruded out of the femur by touching with a finger. Subsequently, 100 μL of the tumor cell solution was slowly injected into the extra-skeletal muscular tissues, and 100 μL of the solution was injected into the epiphysis and the metaphysis of the femur (at 0.5 cm deep from skin surface) after slowly retracting the needle. After the implantation, the rats were released back into the cage, and their activities and body conditions were monitored continuously. The animals were immunosuppressed by daily administration of cyclosporin A (10 mg/kg, Sandimmun®, Novartis) for total 7 days from the 3rd to the 9th day after UMR-106 cells injection.
(§2) The experimental animals were divided into three groups; a tumor control group (in which the rats received implantation of tumor cells but not BNCT treatment), a high-dose BNCT group, and a low-dose BNCT group.
After the SD rats were implanted with tumor cells for 11 days, the BNCT treatment and subsequent evaluation of biological effects were commenced. Considering the pharmacokinetics and the changes in boron concentration distribution in the rats after the drug administration, BNCT irradiation was carried out at adequate times after administering boric acid. The rats were anesthetized by gas, then intravenously injected with a boric acid of 25 mg ^10B/kg BW. Fifteen minutes before the neutron irradiation, the rats were injected with Atropine and Zoletil to allow the rats to be anesthetized longer. Each of the rats was placed on a fixing frame with its tumor-bearing area close to the beam aperture of the Tsing Hua Open-pool Reactor (THOR), and then neutron irradiation was performed at a specific neutron flux and irradiation time to achieve a certain total neutron fluence. For the reactor power at 1.2 MW, the neutron fluxes at the central beam exit were 1.34×10^8, 1.07×10^9, and 7.66×10^7 n/cm^2/sec, respectively for thermal, epithermal, and fast neutrons. [Liu, Y. H., Tsai, P. E., Liu, H. M., Jiang, S. H., “Characterization of a BNCT beam using neutron activation and indirect neutron radiography,” Radiation Measurements, vol. 45, pp. 1167-1170, 2010.] After the irradiation, the actual irradiation time and reactor power were adjusted by using the on-line neutron monitoring system for THOR.

[2] = rat, in vivo; remark: listed apart in the source
Text: as §2
After the SD rats were implanted with tumor cells for 11 days, the BNCT treatment and subsequent evaluation of biological effects were commenced. Considering the pharmacokinetics and the changes in boron concentration distribution in the rats after the drug administration, BNCT irradiation was carried out at adequate times after administering boric acid. The rats were anesthetized by gas, then intravenously injected with a boric acid of 25 mg ^10B/kg BW. Fifteen minutes before the neutron irradiation, the rats were injected with Atropine and Zoletil to allow the rats to be anesthetized longer. […]
Boric acid (25 mg 10B/kg) were injected into the tumor-bearing rats via the tail vein before the irradiation. […] Consequently, the doses received in each of the organs were calculated according to the actual irradiation times and powers, along with simulations of dose rates in the rats' organs from the MCNP application. […]

[3] = 60 mg of ^10B stable isotope per kilogram of human body weight; cited from earlier work
[4] = in vivo; cited from earlier work
[5] = oral administration of BA to rats or human; cited from earlier work
[6] = in vivo and in vitro studies; binding to the cis-hydroxy groups; cited from earlier work
Glioblastoma multiforme = conditions: in vivo; cited from earlier work

Question: For O=BOB(O)OB(O)OB=O [Borax, sodium borate], which “outcome of BNCT clinical trials” value (brain tumors) is on record?
Answer: Its value is “unsuccessful”.

Question: With OB(O)O [boric acid] as the compound, how does the “boron concentration of extra-skeletal tumor tissues relative to blood” value ([1]; male, Sprague-Dawley, 1 h) read?
Answer: Its value is “approximately 1.2 times”.

Question: What about the “boron concentration of tumor-bearing distal femurs relative to blood” value ([1]; male, Sprague-Dawley, 1 h) of the same compound?
Answer: The value was “approximately 2.1 times”.

Question: And the “boron concentration of tumor-bearing proximal femurs relative to blood” value ([1]; male, Sprague-Dawley, 1 h)?
Answer: Its value is “approximately 2.6 times”.

Question: And the “boron concentrations in the soft tissues compared with blood” value [1]?
Answer: Its value is “similar”.

Question: What about the “histopathological finding of extra-skeletal tumor region” value (UMR-106 osteosarcoma; 80th day after BNCT, hematoxylin and eosin stain) of the same compound?
Answer: The value was “no-viable tumor cells were found”.

Question: What about the “reduction of the sizes of the tumors” value (UMR-106 osteosarcoma; 80th day after the irradiation) of the same compound?
Answer: Its value is roughly 90%.

Question: And the “bone healing on radiographs” value (UMR-106 osteosarcoma; high dose day 5 to 16, low dose day 5 to 23 after BNCT)?
Answer: The value was “the bone appeared to be healing gradually”.

Question: And the relative tumor area (UMR-106 osteosarcoma; high-dose BNCT group (11.0 Gy), 5th day after BNCT, area divided by area on day of BNCT)?
Answer: Its relative tumor area is 1.1.

Question: What about the relative tumor area (UMR-106 osteosarcoma; high-dose BNCT group, 10th day after BNCT) of the same compound?
Answer: Its relative tumor area is 0.7.

Question: What about the relative tumor area (UMR-106 osteosarcoma; high-dose BNCT group, 30th day after BNCT) of the same compound?
Answer: Its relative tumor area is 0.2.

Question: What about the relative tumor area (UMR-106 osteosarcoma; high-dose BNCT group, 60th day after BNCT) of the same compound?
Answer: The relative tumor area was 0.2.

Question: And the relative tumor area (UMR-106 osteosarcoma; high-dose BNCT group, 80th day after BNCT)?
Answer: The relative tumor area was 0.1.

Question: And the relative tumor area (UMR-106 osteosarcoma; low-dose BNCT group (5.8 Gy), 5th day after BNCT)?
Answer: Its relative tumor area is 1.3.

Question: And the relative tumor area (UMR-106 osteosarcoma; low-dose BNCT group, 10th day after BNCT)?
Answer: The relative tumor area was 1.1.

Question: And the relative tumor area (UMR-106 osteosarcoma; low-dose BNCT group, 30th day after BNCT)?
Answer: The relative tumor area was 0.3.

Question: What about the relative tumor area (UMR-106 osteosarcoma; low-dose BNCT group, 60th day after BNCT) of the same compound?
Answer: Its relative tumor area is 0.2.

Question: And the relative tumor area (UMR-106 osteosarcoma; low-dose BNCT group, 80th day after BNCT)?
Answer: The relative tumor area was 0.2.

Question: What about the “gastro-intestinal reactions, weight loss and other discomfort after the irradiation” value [2] of the same compound?
Answer: The value was “temporary side-effects”.

Question: What about the “adverse effect of an injection dose of boric acid” value [3] of the same compound?
Answer: The value was “no permanent adverse effect”.

Question: And the “ratio of boron concentrations in blood and soft tissue” value [4]?
Answer: Its value is “one”.

Question: What about the “factor by which boron concentrations in bones exceeded those in blood” value [5] of the same compound?
Answer: Its value is 4.

Question: What about the “affinity with hydroxyapatite of bone” value [6] of the same compound?
Answer: The value was “strong affinity”.

Question: With borocaptate sodium [BSH] as the compound, how does the “ratio of boron concentrations between tumors and normal tissues” value (Glioblastoma multiforme) read?
Answer: The value was “does not result in higher ratio”.
